According to BigSolDB 2.1:

[1] = in 2,2,4-trimethylpentane, 298.2 K
[2] = in 2,2,4-trimethylpentane, 308.2 K
[3] = in 2,2,4-trimethylpentane, 318.2 K

Compound | solubility (mole fraction) [1] | solubility (mole fraction) [2] | solubility (mole fraction) [3] | solubility (mole fraction) (in ethanol, 298.2 K) | solubility (mole fraction) (in ethanol, 308.2 K) | solubility (mole fraction) (in ethanol, 318.2 K)
c1ccc2cc3ccccc3cc2c1 | 0.00119 | 0.00152 | 0.00177 | 0.000505 | 0.000665 | 0.00078
c1ccc2c(c1)ccc1ccccc12 | 0.0246 | 0.0378 | 0.0484 | 0.0119 | 0.0159 | 0.019
